Laboratory results reported in paper PMC10856618, “Research on the Interaction Mechanism and Structural Changes in Human Serum Albumin with Hispidin Using Spectroscopy and Molecular Docking” (Molecules, 2024).

Biological target: T1, human serum albumin (HSA) (Homo sapiens, UniProt P02768)
T1 construct: gene ALB; commercial HSA (Solarbio), mature plasma protein, 585 residues, 66,500 Da
Experiment: intrinsic fluorescence quenching titration (ex […] nm)
Type: binding
Conditions: 298 K, pH 7.4 Tris-HCl, 0.1 mol/L NaCl, 5 µmol/L HSA; n = 1.04; double-log; mainly site I (subdomain IIA)

T1 sequence (P02768 25-609): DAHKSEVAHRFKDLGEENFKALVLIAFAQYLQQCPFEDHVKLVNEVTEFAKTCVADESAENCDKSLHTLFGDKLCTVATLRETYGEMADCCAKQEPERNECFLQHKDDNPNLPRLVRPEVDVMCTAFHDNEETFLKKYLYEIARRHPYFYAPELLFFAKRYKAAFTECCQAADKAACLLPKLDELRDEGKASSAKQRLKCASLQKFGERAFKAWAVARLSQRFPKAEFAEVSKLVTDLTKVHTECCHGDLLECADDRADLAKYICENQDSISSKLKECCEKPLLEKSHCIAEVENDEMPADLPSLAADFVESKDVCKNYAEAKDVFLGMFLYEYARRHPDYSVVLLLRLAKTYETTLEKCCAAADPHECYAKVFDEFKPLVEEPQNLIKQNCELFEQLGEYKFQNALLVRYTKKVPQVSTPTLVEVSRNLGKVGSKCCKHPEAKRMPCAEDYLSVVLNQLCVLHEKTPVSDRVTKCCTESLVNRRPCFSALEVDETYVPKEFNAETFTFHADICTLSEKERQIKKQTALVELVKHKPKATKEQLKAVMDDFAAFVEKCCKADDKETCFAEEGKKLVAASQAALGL

Ka (10^5 L/mol): 1.03 × 10^5 L/mol
Structure (SMILES): O=c1cc(O)cc(/C=C/c2ccc(O)c(O)c2)o1 [hispidin]
